According to paper PMC8650221 (Biochemistry, 2021):
Like-named read-outs stand apart in the source and are kept apart here.

What was measured:
[1] = biological target: T1, D37G OMPDC (Saccharomyces cerevisiae, UniProt P03962, D37G); assay type: biochemical; settings: phosphite dianion activation of D37G-catalyzed decarboxylation of EO, pH 7.0, 25 °C, I = 0.14 (NaCl)
[2] = biological target: T2, T100’A OMPDC (Saccharomyces cerevisiae, UniProt P03962, T100A); assay type: biochemical; settings: pH 7.0, 25 °C, I = 0.15 (NaCl); for (kcat/Km)E•Act/Kd: activated decarboxylation of FO, T100’A OMPDC; for Kd: activator of T100’A OMPDC-catalyzed decarboxylation of FO
T2 sequence (P03962 whole entry T100A): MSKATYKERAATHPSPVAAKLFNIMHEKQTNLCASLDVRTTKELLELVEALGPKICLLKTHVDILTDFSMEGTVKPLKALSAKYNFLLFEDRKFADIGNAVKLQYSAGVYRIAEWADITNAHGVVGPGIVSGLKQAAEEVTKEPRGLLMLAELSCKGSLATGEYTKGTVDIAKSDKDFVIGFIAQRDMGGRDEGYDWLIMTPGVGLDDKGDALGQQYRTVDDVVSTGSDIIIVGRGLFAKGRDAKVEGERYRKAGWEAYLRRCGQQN

[3] = tested on: wild type OMPDC; settings: cited from earlier work; for stabilization of the transition state for OMPDC-catalyzed decarboxylation of FO by activator (ΔG^‡act): 1.0 M dianion activator; for (kcat/Km)E•Act/Kd: activated decarboxylation of FO, pH 7.0, 25 °C, I = 0.15 (NaCl)
[4] = biological target: T1, D37G OMPDC; test: D37G variant OMPDC-catalyzed decarboxylation of FO, dianion-activated; assay type: biochemical
[5] = tested on: wild type OMPDC; settings: cited from earlier work
[6] = biological target: T1, D37G OMPDC; test: D37G variant OMPDC-catalyzed decarboxylation of OMP; assay type: biochemical
[7] = tested on: wild type OMPDC; settings: cited from earlier work; remark: listed apart in the source
[8] = biological target: T2, T100’A OMPDC; test: T100’A variant OMPDC-catalyzed decarboxylation of OMP; assay type: biochemical
[9] = tested on: adenylate kinase; settings: cited from earlier work

T1 sequence (P03962 whole entry D37G): as the sequence (P03962 whole entry T100A) above, with D37G, A100T counted along it

O=[PH](O)O [HPO3^2−, phosphite dianion]
Kd [1]: 5.1 mM | (kcat/Km)E•Act/Kd [2]: (1.87 ± 0.03) × 10^−4 M^−2 s^−1 | Kd [2]: Kd >> [HPO3^2−]^e | stabilization of the transition state for OMPDC-catalyzed decarboxylation of FO by activator (ΔG^‡act) [3]: 5.2 kcal/mol | (kcat/Km)E•Act/Kd [3]: 8.4 × 10^−4 M^−2 s^−1 | Kd ([4]; activator of D37G OMPDC-catalyzed decarboxylation of FO, pH 7.0, 25 °C, I = 0.15 (NaCl)): 4.7 mM | Kd ([4]; phosphite dianion activation of D37G-catalyzed decarboxylation of FO): 4.7 mM | ΔG^‡act, stabilization of the decarboxylation transition state by phosphite dianion ([5]; decarboxylation of EO, wild type OMPDC): 7.7 kcal/mol | Kd ([5]; productive (observed) binding of phosphite dianion activator to wild type OMPDC or variant enzymes): ~100 mM

O=P(O)(O)OCC(O)CO [DG3P, D-glycerol 3-phosphate]
stabilization of the transition state for OMPDC-catalyzed decarboxylation of FO by activator (ΔG^‡act) [3]: 7.2 kcal/mol | (kcat/Km)E•Act/Kd [3]: 2.5 × 10^−2 M^−2 s^−1

O=P(O)(O)OCC(O)CO (racemic) [DLG3P, D,L-glycerol 3-phosphate]
(kcat/Km)E•Act/Kd [2]: (1.7 ± 0.2) × 10^−3 M^−2 s^−1 | Kd [2]: 94 ± 8 mM | (kcat/Km)E•Act/Kd [3]: 1.3 × 10^−2 M^−2 s^−1

O=C(O)c1cc(=O)[nH]c(=O)n1[C@@H]1O[C@H](COP(=O)(O)O)[C@@H](O)[C@H]1O [OMP, orotidine 5’-monophosphate]
intrinsic dianion binding energy ([6]; D37G OMPDC, calculated from ratio of kcat/Km for OMP and EO (Table 1)): 11.0 kcal/mol | decrease in transition state stabilization by protein interactions with the substrate dianion ([6]; effect of D37G substitution, decarboxylation of OMP): 0.7 kcal/mol | stabilization of the Michaelis complex ([7]; Michaelis complex of OMPDC to OMP): 8 kcal/mol | transition state stabilization ([7]; OMPDC-catalyzed decarboxylation of OMP): 31 kcal/mol | intrinsic dianion binding energy ([7]; wild type OMPDC, from ratio of kcat/Km for OMP and EO): 11.7 kcal/mol | intrinsic dianion binding energy ([8]; T100’A OMPDC, calculated from ratio of kcat/Km for OMP and EO (Table 1)): 10.8 kcal/mol | decrease in transition state stabilization by protein interactions with the substrate dianion ([8]; effect of T100’A substitution, decarboxylation of OMP): 0.9 kcal/mol

Nc1c2ncnc-2ncn1[C@@H]1OC[C@@H](O)[C@H]1O [(1-β-D-erythrofuranosyl)adenine]
transition state stabilization by interactions with the substrate piece ([9]; phosphoryl transfer from ATP to phosphite dianion): ≥ 8.7 kcal/mol

O=P(O)(O)OC[C@@H](O)[C@@H](O)CO [DE4P, D-erythritol 4-phosphate]
(kcat/Km)E•Act/Kd [2]: (5.4 ± 0.1) × 10^−3 M^−2 s^−1 | stabilization of the transition state for OMPDC-catalyzed decarboxylation of FO by activator (ΔG^‡act) [3]: 9.0 kcal/mol | (kcat/Km)E•Act/Kd [3]: 6.0 × 10^−1 M^−2 s^−1 | Kd [4]: 3 mM

O=P(O)(O)OC[C@H](O)CO [LG3P, L-glycerol 3-phosphate]
(kcat/Km)E•Act/Kd [2]: (5.3 ± 0.2) × 10^−4 M^−2 s^−1 | Kd [2]: Kd >> [LG3P]^e | (kcat/Km)E•Act/Kd [3]: 1.0 × 10^−3 M^−2 s^−1

Nc1ncnc2c1ncn2[C@@H]1O[C@H](COP(=O)(O)O)[C@@H](O)[C@H]1O [AMP]
transition state stabilization by interactions with the adenosyl group ([9]; enzyme-catalyzed phosphoryl transfer from ATP (to AMP)): ≥ 14.7 kcal/mol
